Laboratory results from patent US20240207410A1, “STABILIZED LIQUID COMPOSITIONS COMPRISING A LEVODOPA-TYROSINE CONJUGATE AND USES THEREOF” (NeuroDerm, Ltd., priority 2021, published 2024).
Where a SMILES comes first, the peptide text is derived from it. [ ]: non-standard residue; d: D form. Dopa = N[C@@H](Cc1ccc(O)c(O)c1)C(=O)O

Legend:
[1] = tested on: Pig/domestic; assay: Local infusion site reaction as part of a PK study (ND 2-20-102); assay type: in vivo; details: study ND 2-20-102, 200 mg/mL at 9 mL (1800 mg/day)
Protocol: (§1) In vivo non-clinical safety studies were conducted in both the rat and minipig. Additionally, an assessment of the local infusion site reaction of LD-Tyr was performed as part of a PK study in domestic pigs.

[2] = Effect of various additives on stability of a 20% LD-Tyrosine-L-Arginine based formulation; assay type: physicochemical
[3] = tested on: red blood cells (RBC); assay: Blood/plasma ratio, partitioning into red blood cells, human blood ex vivo; assay type: in vitro ADME; details: human blood
[4] = PK following bolus and 2-hr continuous SC administration of 30% LD-Tyr (Example 18); assay type: in vivo, domestic pig; details: pig; for AUC(0-t) / Cmax / Tmax: female, plasma, sc, analyte LD-Tyr, 30/1 % w/v, bolus and 2-hr continuous SC administration
Protocol: A series of PK and local-tox studies was completed in domestic pigs using several concentrations LD-Tyr formulations comprising varying amounts of CD, as detailed in Table 42, and dosing regimens, as detailed in Table 43. […] Each formulation was administered at one infusion site per animal using a Crono-ND infusion pump (Canè SpA Medical Technology, Rivoli, Italy) connected to an infusion set (Accu-chek®, FlexLink, Roche).
Blood samples for the determination of LD-Tyr and LD plasma levels were collected from the pigs at the following timepoints:
0 (pre-dose), 10 min (end of bolus), 15 min, 30 min, 45 min, 60 min, 75 min, 90 min, 120 min and 240 min following the beginning of the bolus administration.

[5] = Maximal Tolerated Dose (MTD), bolus SC; assay type: in vivo; details: in vivo; study MTD Exp 001, Rat/SD, bolus SC, 90, 150, 300, 625 mg/kg
Protocol: as §1

[6] = tested on: Rat/SD; assay: Maximal Tolerated Dose (MTD), bolus SC; assay type: in vivo; details: study MTD Exp 001, Rat/SD, bolus SC, highest dose (625 mg/kg), males
Protocol: as §1

[7] = PK of LD following 18-hr SC administration of LD-Tyr in a formulation comprising ethanol (Example 22); assay type: in vivo, domestic pig; details: for AUC(0-t) / Cmax / Tmax: pig, plasma, analyte LD-Tyr, 18-hr continuous SC, formulation comprising ethanol
Protocol: The objective of this study is to determine the pharmacokinetics (PK) of LD-Tyr following an 18-hr continuous subcutaneous (SC) administration in domestic pigs of a formulation comprising 30& LD-Tyr and ethanol. Table 53 provides the LD-Tyr formulation tested in this study.
Animals were dosed with 2700 or 5400 mg of LD-Tyr in the formulation of Table 53 in an 18-hr continuous subcutaneous administration in an infusion volume of 9 or 18 ml (9 mL×2 sites).

[8] = PK of high concentration LD-Tyr formulations comprising TRIS, 0.5% CD (Example 15B); assay type: in vivo, domestic pig; details: female, pig, plasma, sc, analyte LD-Tyr, 18-hour continuous SC infusion
Protocol: (§2) A series of PK and local-tox studies was completed in domestic pigs using several high concentration LD-Tyr formulations comprising 0.5% CD and varying amounts of TRIS, as detailed in Table 33, and dosing regimens, as detailed in Table 34. The PK profile of LD-Tyr as well as the LD resulting therefrom was determined following 18-hour continuous SC infusion to female domestic pigs. Each formulation was administered at one infusion site per animal using a Crono-ND infusion pump (Canè SpA Medical Technology, Rivoli, Italy) connected to an infusion set (Accu-chek®, FlexLink, Roche).
(§3) Blood samples for the determination of LD-Tyr and LD plasma levels were collected from the pigs at the following timepoints: […]

[9] = Long-term stability of 30% LD-Tyrosine/0.75% carbidopa at 2-8° C.; assay type: physicochemical
Protocol: The formulation also included 0.5% ascorbic acid (Asc), 0.5% N-acetyl cysteine (NAC) and 0.3% Tween 80. The formulation was stored at 2-8° C. for the time indicated, and % recovery and % LD-Tyr-DKP formation (an impurity) were tested. Percent recovery remained high over time. The DKP impurity accumulated over time.

[10] = tested on: red blood cells (RBC); assay: Blood/plasma ratio, partitioning into red blood cells, rat blood ex vivo; assay type: in vitro ADME
[11] = tested on: Minipig/Göttingen; assay: Local safety, 24-hour SC infusion; assay type: in vivo
Protocol: as §1

[12] = tested on: red blood cells (RBC); assay: Blood/plasma ratio, partitioning into red blood cells, minipig blood ex vivo; assay type: in vitro ADME; details: for KRBC/PL: 50 ng/mL
[13] = in vivo; details: female, pig, sc, analyte LD-Tyr
Protocol: as §2, with “PK” for “PK and local-tox”, “several” for “several high concentration”, “formulations,” for “formulations comprising 0.5% CD and varying amounts of TRIS,”, “26,” for “33,”, “27.” for “34.”
as §3

[14] = bolus volume 0.7 mL, bolus dose 210/7 mg, daily dose 510/17 mg
[15] = bolus volume 1.2 mL, bolus dose 360/12 mg, daily dose 660/22 mg
[16] = bolus volume 1.7 mL, bolus dose 510/17 mg, daily dose 810/27 mg
[17] = 2700 mg, LD-Tyr/CD daily dose 2700/117 mg, n = 5
[18] = 5400 mg, LD-Tyr/CD daily dose 5400/234 mg, n = 3
[19] = LD-Tyr/CD 30/0.5 % w/v, daily dose 2775/37.5 mg, n = 2
[20] = LD-Tyr/CD 37/0.5 % w/v, daily dose 2640/30 mg, n = 3
[21] = LD-Tyr/CD 44/0.5 % w/v, daily dose 2700/45 mg, n = 1

## N[C@@H](Cc1ccc(O)c(O)c1)C(=O)N[C@@H](Cc1ccc(O)cc1)C(=O)O [LD-Tyr, levodopa-tyrosine (LD-Tyr) conjugate of the formula (II)] (H-[Dopa]-Tyr-OH)
[1]
  subacute inflammation in the subcutis: minimal to mild
[2]
  solubility of the LD-Tyr (rank order of cosolvents): DMA>Ethanol>PEG 300
[3]
  RBC binding: no RBC binding
[3]; all measured
  KRBC/PL: below one
[4]; [14]
  AUC(0-t): 1180 ng·h/mL
  Cmax: 573 ng/mL
  Tmax: 1.3 h
[4]; [15]
  AUC(0-t): 1630 ng·h/mL
  Cmax: 933 ng/mL
  Tmax: 0.9 h
[4]; [16]
  AUC(0-t): 2430 ng·h/mL
  Cmax: 1350 ng/mL
  Tmax: 1.2 h
[4]; in vivo
  systemic exposure to LD versus bolus injection volume: dose-proportional increase
[5]
  MTD: 300 mg/kg
[6]
  Mortality: Mortality (1/4 males)
[7]; 2700 and 5400 mg, 18-hr continuous SC administration
  dose proportionality: dose proportionality
[7]; [17]
  AUC(0-t): 8210 ± 4120 ng·h/mL
  Cmax: 707 ± 283 ng/mL
  Tmax: 14 h
[7]; [18]
  AUC(0-t): 21200 ± 8570 ng·h/mL
  Cmax: 1610 ± 902 ng/mL
  Tmax: 14 h
[8]; [19]
  AUC(0-t): 4800 ng·h/mL
  Cmax: 445 ng/mL
  Tmax: 10 h
[8]; [20]
  AUC(0-t): 5600 ng·h/mL
  Cmax: 491 ng/mL
  Tmax: 15 h
[8]; [21]
  AUC(0-t): 534 ng·h/mL
  Cmax: 49.6 ng/mL
  Tmax: 2 h
[9]; 1 month
  % DKP: 1.88 % area
  mg/mL (concentration in formulation): 295.74 mg/mL
[9]; 1 week
  % DKP: 0.99 % area
  mg/mL (concentration in formulation): 294.13 mg/mL
[9]; 2 months
  % DKP: 2.60 % area
  mg/mL (concentration in formulation): 302.47 mg/mL
[9]; 2 weeks
  % DKP: 1.19 % area
  mg/mL (concentration in formulation): 304.25 mg/mL
[9]; 3 months
  % DKP: 4.04 % area
  mg/mL (concentration in formulation): 296.57 mg/mL
[9]; t = 0
  % DKP: 0.86 % area
  mg/mL (concentration in formulation): 297.62 mg/mL
[10]; rat blood
  KRBC/PL versus time of incubation: increased with the time of incubation
  RBC binding: limited RBC binding
[10]; rat blood, 50, 150 and 2500 ng/mL
  partition coefficient between RBC and plasma (KRBC/PL): below five
[11]; study 0NMR6, 120 mg/mL at 4.5 mL (540 mg/day)
  subchronic/chronic inflammation in the subcutis: minimal to mild
[11]; study 0NMR6, 24-hour SC infusion, 120 mg/mL at 4.5 mL (540 mg/day)
  tolerability (local effect, cutaneous ulcers): well tolerated with no
[11]; study 0NMR10, 130 mg/mL at 6 mL (780 mg/day)
  chronic inflammation in the subcutis: minimal to moderate
[11]; study 0NMR10, 24-hour SC infusion, 130 mg/mL at 6 mL (780 mg/day)
  tolerability (local effect, cutaneous ulcers): well tolerated with no
[11]; study E0515, 24-hour SC infusion, 440, 370, 300, and 250 mg/mL (2640, 2775, 2700, and 2250 mg/day)
  tolerability (local effect, cutaneous ulcers): well tolerated with no
[12]; minipig blood
  RBC binding: limited RBC binding
[12]; minipig blood, after 30 minutes (declined)
  KRBC/PL: 0.0
[12]; minipig blood, at 15 and 30 minutes
  KRBC/PL: 1
[12]; minipig blood, 50, 150 and 2500 ng/mL
  partition coefficient between RBC and plasma (KRBC/PL): below five
[12]; minipig blood, two highest concentrations (150 and 2500 ng/mL)
  KRBC/PL versus time of incubation: increased with the time of incubation
[13]
  Tmax: 10.4 h
